Read-outs that look alike come from different tables or passages of the source.
Columns and labels:
[1] = target: T1, human β3-adrenergic receptor (Homo sapiens, UniProt P13945); experiment: Measurement of human β3-adrenergic receptor agonist activity (intracellular cAMP, recombinant CHO-K1 cells); format: cell-based
T1 construct: expressed in transfected cells; vector pTracer-EF A
Procedure: The obtained recombinant cells were cultured in a 96-well microplate until the cell density reaches 100%. After the medium was removed, the cells were washed once with Dulbecco's modified phosphate buffer solution (hereinafter, abbreviated as PBS; TaKaRa), and then 100 μL of an assay buffer [DMEM, 10% FCS, 20 mM HEPES (pH 7.2), 0.1 mM isobutylmethylxanthine] containing 10 μM isoproterenol was added. As a control, the assay buffer was used without addition of isoproterenol. After incubation at 37° C. for 20 minutes, the cells were washed once with PBS, and then the amount of intracellular cAMP were quantified using a cAMP EIA Kit (Amersham Bioscience). […] The selected recombinant cells were further cultured. […]
The human β3-adrenergic receptor-expressing recombinant 6H4-2d3 was cultured in a 96-well microplate in DMEM containing 10% FCS and 500 μg/mL Zeocin at 37° C. in a 5% CO2 atmosphere. […] The cells were washed once with PBS, and an assay buffer [DMEM, 10% FCS, 20 mM HEPES (pH 7.2), 0.1 mM isobutylmethylxanthine] supplemented with the test substance to be measured was added at 100 μL/well. After incubation at 37° C. for 10 minutes, the cells were washed once with PBS, and then their intracellular cAMP levels were quantified using a cAMP EIA Kit (Amersham Bioscience). […] The same test substance was measured three times and the mean and standard deviation of the measurements were used. […]

[2] = cited from earlier work
[3] = tested on: rat β-adrenergic receptor; conditions: rat adipocytes treated with quercetin; cited from earlier work
3T3-L1 adipocytes = experiment: Measurement of lipolytic effect using 3T3-L1 cells (glycerol release); format: cell-based, mouse; conditions: 5 μM to 500 μM; 3 days incubation
Procedure: 3T3-L1 cells which are adipocyte precursor cells derived from mice (purchased from Human Science Research Resource Bank) were added into a 96-well plate at 1×10^4 cells/well, and then cultured in Dulbecco's modified Eagle medium (D-MEM, GIBCO) supplemented with 10% fetal calf serum (FCS) at 37° C. in a 5% CO2 atmosphere. To induce differentiation to adipocytes, right before the cells reaches confluency, the medium was exchanged with 10% FCS-containing D-MEM supplemented with 0.5 mM 3-isobutyl-1-methylxanthine, 2×10^−7 M dexamethasone, and 0.8 μM insulin. Two days later, the medium was exchanged with 10% FCS-containing D-MEM supplemented only with 0.8 μM insulin. […] The culture medium of the cells cultured in the 96-well plate were removed by aspiration, 10% FCS-containing D-MEM containing the test substance was added at 100 μL/well, and after incubation for 3 days, 80 μL of the culture medium was collected from each well, and the amount of glycerol in the culture medium was determined using “F-Kit Glycerol” (Boehringer Mannheim). […] To a test medium, 0.5 to 500 μg/mL of dried lotus leaf extract, 0.5 to 500 μM of quercetin, and 10^−8 M to 10^−5 M of isoproterenol as a positive control were added individually, and the amount of glycerol released into the medium due to degradation of the fat stored in 3T3-L1 adipocytes was measured.

T1 sequence (P13945 1-402 limits assumed): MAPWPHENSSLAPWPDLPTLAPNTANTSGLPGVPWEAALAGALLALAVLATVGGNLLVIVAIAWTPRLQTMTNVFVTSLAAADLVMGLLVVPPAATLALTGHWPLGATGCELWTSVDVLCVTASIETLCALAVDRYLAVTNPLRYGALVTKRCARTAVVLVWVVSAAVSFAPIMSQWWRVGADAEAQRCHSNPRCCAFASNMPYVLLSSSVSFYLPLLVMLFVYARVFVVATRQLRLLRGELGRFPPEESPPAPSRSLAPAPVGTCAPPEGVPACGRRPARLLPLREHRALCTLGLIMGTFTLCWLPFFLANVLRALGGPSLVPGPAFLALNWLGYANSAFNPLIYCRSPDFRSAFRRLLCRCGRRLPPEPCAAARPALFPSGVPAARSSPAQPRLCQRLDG

accumulation of cAMP ([1]; 15 μM, 30 µM, 60 μM, only in CHO-K1 cells expressing the receptor, not in non-expressing CHO-K1)	SMILES	β3-adrenergic receptor agonist activity (cAMP) ([1]; 1 μM, 10 μM, 100 μM, 1000 μM, compared with quercetin)	Solubility ([2]; boiling water)	Solubility ([2]; cold alcohol-ether)	Solubility ([2]; cold water)	Solubility ([2]; hot alcohol-glacial acetic acid)	cAMP accumulation [3]	Lipolysis (glycerol released into the medium) (3T3-L1 adipocytes)
–	O=C(O)[C@H]1O[C@@H](Oc2c(-c3ccc(O)c(O)c3)oc3cc(O)cc(O)c3c2=O)[C@H](O)[C@@H](O)[C@@H]1O [Q3GA, quercetin 3-O-β-D-glucuronide]	β3-adrenergic receptor agonist activity similar to that of quercetin	–	–	–	–	–	–
significant accumulation of cAMP	O=c1c(O)c(-c2ccc(O)c(O)c2)oc2cc(O)cc(O)c12 [quercetin, 3,3′,4′,5,7-pentahydroxyflavone]	–	slightly soluble	poorly soluble	insoluble	readily soluble	cAMP accumulates	significantly promoted

From patent publication US20080146657A1, “Plant-Origin Alpha3-Adrenoceptor Agonist and Use of the Same” (priority 2003, published 2008)
